Common to all, as to type: cell-based
In test [1] the test system is UM-UC-14 (FGFR3-S249C) cells. The test is described as follows: cell proliferation assay (CellTiterGlo), UM-UC-14 cells. Conditions: UMUC14, 72 h. The method, boiled down: (§1)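 Suspended cells plated; DMSO or compound dose range added; intracellular ATP read by CellTiterGlo luminescence; IC50 vs vehicle-normalized viability.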
(ATP-based viability assays read luminescence as a measure of living cells.)

Test [2] has as its system SNU-16 (FGFR2-amplification) cells. The experiment in a line: cell proliferation assay (CellTiterGlo), SNU-16 cells. Particulars: Homo sapiens, 72 hours. Put shortly:
as §1

The subject of test [3] is RT-112 (FGFR3-Tacc3 fusion) cells. The experiment in a line: cell proliferation assay (CellTiterGlo), RT-112 cells. Conditions: Homo sapiens, RT-112, RT112 cells, 72 hours. Put shortly:
as §1

For test [4], the system named is DMS-114 (FGFR1 overexpression) cells. The test is described as follows: cell proliferation assay (CellTiterGlo), DMS-114 cells. Conditions: Homo sapiens, DMS-114, 72 h. Put shortly:
as §1

SMILES strings stand for the structures.

On to `Cc1nc2ccc(Oc3ccc4ncc(-c5cnn([C@H]6C[C@H](N7CC(O)C7)C6)c5)nc4c3Cl)cc2[nH]1` [Compound 214], for which the IC50 in test [1] fell in the range of 20 to 100 nM; in test [2], 20 to 100 nM; in test [3], 20 to 100 nM; in test [4], 100 to 400 nM.
As to `Cc1nc2ccc(Oc3ccc4ncc(-c5cnn(CCN6CCCC6=O)c5)nc4c3Cl)cc2[nH]1` [Compound 215], the IC50 is 20 to 100 nM in test [1], 20 to 100 nM in test [2], 20 to 100 nM in test [3] and at least 400 nM in test [4].
Consider `Cc1nc2ccc(Oc3ccc4ncc(-c5cnn(CC6CC(F)(F)C6)c5)nc4c3C3CC3)cc2[nH]1` [Compound 216], for which the concentration for half-maximal inhibition (IC50) in test [1] is 100 to 400 nM; in test [2] it was 100 to 400 nM; in test [3], 100 to 400 nM; in test [4], at least 400 nM.
`Cc1nc2ccc(Oc3ccc4ncc(-c5cnn(C6CN(CC7COC7)C6)c5)nc4c3Cl)cc2[nH]1` [Compound 217]: the IC50 in test [1] was 20 to 100 nM; in test [2], 20 to 100 nM; in test [3], 20 to 100 nM; in test [4], at least 400 nM.
In the case of `Cc1nc2ccc(Oc3ccc4ncc(-c5cnn(C6CC7(C6)CN(C6COC6)C7)c5)nc4c3Cl)cc2[nH]1` [Compound 218], the IC50 in test [1] lay within 20 to 100 nM; in test [2], 20 to 100 nM; in test [3], 20 to 100 nM; in test [4], 100 to 400 nM.
Turning to `CCc1nc2cc(Oc3ccc4ncc(-c5cnn(CC6CC(F)(F)C6)c5)nc4c3Cl)ccc2[nH]1` [Compound 219], the IC50 in test [1] is 100 to 400 nM; in test [2], 100 to 400 nM; in test [3], 100 to 400 nM; in test [4] it was at least 400 nM.
On to `Cc1nc2ccc(Oc3ccc4ncc(-c5cnn(C6CN(CC7(F)CC7)C6)c5)nc4c3Cl)cc2[nH]1` [Compound 220], for which the IC50 in test [1] was 20 to 100 nM; in test [2], 20 to 100 nM; in test [3], 20 to 100 nM; in test [4], at least 400 nM.
As for `Cc1nc2ccc(Oc3ccc4ncc(-c5cnn(C6CN(CC(F)F)C6)c5)nc4c3Cl)cc2[nH]1` [Compound 221], the IC50 in test [1] was 20 to 100 nM; in test [2], 20 to 100 nM; in test [3], 20 to 100 nM; in test [4] it was at least 400 nM.
As for `Cc1nc2ccc(Oc3ccc4ncc(-c5cnn(C(OCc6ccccc6)C6CC6)c5)nc4c3Cl)cc2[nH]1` (stereo not drawn) [Compound 222], the half-inhibitory concentration (IC50) in test [1], in test [2], in test [3] and in test [4] was at least 400 nM throughout.
`Cc1nc2ccc(Oc3ccc4ncc(-c5cnn(C6C7CCC6CNC7)c5)nc4c3Cl)cc2[nH]1` (stereo not drawn) [Compound 223]: the IC50 in test [1] lay within 20 to 100 nM; in test [2], 20 to 100 nM; in test [3], 20 to 100 nM; in test [4] it was 100 to 400 nM.
On to `FC1(F)CC(Cn2cc(-c3cnc4ccc(Oc5ccc6[nH]c(C(F)(F)F)nc6c5)c(Cl)c4n3)cn2)C1` [Compound 224], for which the IC50 in test [1], in test [2], in test [3] and in test [4] was at least 400 nM throughout.
With `Cc1nc2ccc(Oc3ccc4ncc(-c5cnn(CCN6C[C@@H]7C[C@H]6CO7)c5)nc4c3Cl)cc2[nH]1` [Compound 225], the IC50 is 20 to 100 nM in test [1], 20 to 100 nM in test [2], 20 to 100 nM in test [3] and at least 400 nM in test [4].
Regarding `Cc1nc2ccc(Oc3ccc4ncc(-c5cnn(C6CN(CC(=O)N7CC(F)(F)C7)C6)c5)nc4c3Cl)cc2[nH]1` [Compound 226], the half-maximal inhibitory concentration (IC50) in test [1] is 20 to 100 nM; in test [2] it was 100 to 400 nM; in test [3], 20 to 100 nM; in test [4], at least 400 nM.
For `Cc1nc2ccc(Oc3ccc4ncc(-c5cnn(C6CN(C)C6)c5)nc4c3Cl)cc2[nH]1` [Compound 227], the IC50 in test [1] is 20 to 100 nM; in test [2], 20 to 100 nM; in test [3], 20 to 100 nM; in test [4] it was at least 400 nM.
In the case of `Cc1nc2ccc(Oc3ccc4ncc(-c5cnn(CC6CS(=O)(=O)C6)c5)nc4c3Cl)cc2[nH]1` [Compound 228], the IC50 in test [1] was 20 to 100 nM; in test [2], 20 to 100 nM; in test [3], 20 to 100 nM; in test [4] it was at least 400 nM.
As for `Cc1nc2c(F)c(Oc3ccc4ncc(-c5cnn(CC6CC(F)(F)C6)c5)nc4c3Cl)ccc2[nH]1` [Compound 229], the IC50 in test [1] was 20 to 100 nM; in test [2], 20 to 100 nM; in test [3] it was 20 to 100 nM; in test [4], at least 400 nM.
For `Cc1nc2ccc(Oc3ccc4ncc(-c5cnn(C6CN(C7CN(C)C7)C6)c5)nc4c3Cl)cc2[nH]1` [Compound 230], the IC50 was 20 to 100 nM in test [1], 20 to 100 nM in test [2], 20 to 100 nM in test [3] and at least 400 nM in test [4].
Regarding `C=C(C)c1c(Oc2ccc3nc(C)[nH]c3c2)ccc2ncc(-c3cnn(CC4CC(F)(F)C4)c3)nc12` [Compound 231], the IC50 in test [1] was 20 to 100 nM; in test [2] it was 20 to 100 nM; in test [3] it was 20 to 100 nM; in test [4], at least 400 nM.
On to `Cc1nc2ccc(Oc3ccc4ncc(-c5cnn(C6CCN(C(=O)N7CCC7)CC6)c5)nc4c3Cl)cc2[nH]1` [Compound 232], for which the IC50 in test [1] was 20 to 100 nM; in test [2] it was 20 to 100 nM; in test [3], 20 to 100 nM; in test [4] it was at least 400 nM.
`CC(=O)/C=C/N1CC[C@H](n2cc(-c3cnc4ccc(Oc5ccc6nc(C)[nH]c6c5)c(Cl)c4n3)cn2)[C@@H](F)C1` [Compound 233]: the IC50 in test [1] was 20 to 100 nM; in test [2], 20 to 100 nM; in test [3] it was 20 to 100 nM; in test [4], at least 400 nM.
Consider `Cc1nc2ccc(Oc3ccc4ncc(-c5cnn(CCN6C[C@H]7C[C@@H]6CO7)c5)nc4c3Cl)cc2[nH]1` [Compound 234], for which the IC50 in test [1] is 20 to 100 nM; in test [2] it was 20 to 100 nM; in test [3], 20 to 100 nM; in test [4] it was at least 400 nM.
As for `Cc1nc2ccc(Oc3ccc4ncc(-c5cnn(C6CN(CC(=O)N7CC(O)C7)C6)c5)nc4c3Cl)cc2[nH]1` [Compound 235], the IC50 in test [1] was 20 to 100 nM; in test [2], 20 to 100 nM; in test [3], 20 to 100 nM; in test [4] it was at least 400 nM.
For the compound `Cc1nc2ccc(Oc3ccc4ncc(-c5cnn(C6CN(CC(=O)N7CCC7)C6)c5)nc4c3Cl)cc2[nH]1` [Compound 236], the IC50 in test [1] was 20 to 100 nM; in test [2] it was 20 to 100 nM; in test [3], 20 to 100 nM; in test [4], at least 400 nM.
With `Cc1nc2ccc(Oc3ccc4ncc(-c5cnn(C6CN(C7COC7)C6)c5)nc4c3Cl)cc2[nH]1` [Compound 237], the IC50 in test [1] was 20 to 100 nM; in test [2] it was 20 to 100 nM; in test [3], under 20 nM; in test [4], 100 to 400 nM.
With `Cc1nc2ccc(Oc3ccc4ncc(-c5cnn(C6CN(C7CCOCC7)C6)c5)nc4c3Cl)cc2[nH]1` [Compound 238], the IC50 is 20 to 100 nM in test [1], 20 to 100 nM in test [2], 20 to 100 nM in test [3] and 100 to 400 nM in test [4].
As to `Cc1nc2ccc(Oc3ccc4ncc(-c5cnn(CCN6CCC6)c5)nc4c3Cl)cc2[nH]1` [Compound 239], the IC50 in test [1], in test [2], in test [3] and in test [4] was at least 400 nM throughout.
For `Cc1nc2ccc(Oc3ccc4ncc(-c5cnn(CC6CCN(C)S(=O)(=O)C6)c5)nc4c3Cl)cc2[nH]1` (stereo not drawn) [Compound 240], the IC50 in test [1] was in the range of 20 to 100 nM; in test [2] it was 20 to 100 nM; in test [3] it was 20 to 100 nM; in test [4], 100 to 400 nM.
`Cc1nc2ccc(Oc3ccc4ncc(-c5cnn(CC6CC7CC6CO7)c5)nc4c3Cl)cc2[nH]1` (stereo not drawn) [Compound 241]: the IC50 is 20 to 100 nM in test [1], 20 to 100 nM in test [2], under 20 nM in test [3] and 100 to 400 nM in test [4].
As to `Cc1nc2ccc(Oc3ccc4ncc(-c5cnn(C6CC(=O)C6)c5)nc4c3Cl)cc2[nH]1` [Compound 242], the IC50 in test [1] is 20 to 100 nM; in test [2], 20 to 100 nM; in test [3], 20 to 100 nM; in test [4], at least 400 nM.
`Cc1nc2ccc(Oc3ccc4ncc(-c5cnn(CC6CC(F)(F)C6)c5)nc4c3Br)cc2[nH]1` [Compound 243]: the IC50 in test [1] was 20 to 100 nM; in test [2], 20 to 100 nM; in test [3], 20 to 100 nM; in test [4], at least 400 nM.
As for `Cc1nc2ccc(Oc3ccc4ncc(-c5cnn(C6CC(N7CCC7)C6)c5)nc4c3Cl)cc2[nH]1` (stereo not drawn) [Compound 244], the IC50 is 20 to 100 nM in test [1], 100 to 400 nM in test [2], 20 to 100 nM in test [3] and at least 400 nM in test [4].
With `Cc1nc2ccc(Oc3ccc4ncc(-c5cnn(CC6COCCN6C)c5)nc4c3Cl)cc2[nH]1` (stereo not drawn) [Compound 245], the half-maximal inhibitory concentration (IC50) was 20 to 100 nM in test [1], 20 to 100 nM in test [2], 20 to 100 nM in test [3] and at least 400 nM in test [4].
With `Cc1nc2ccc(Oc3ccc4ncc(-c5cnn(CC6COCCN6)c5)nc4c3Cl)cc2[nH]1` (stereo not drawn) [Compound 246], the IC50 in test [1] was 20 to 100 nM; in test [2], 20 to 100 nM; in test [3], 20 to 100 nM; in test [4], at least 400 nM.
In the case of `Cc1nc2cc(F)c(Oc3ccc4ncc(-c5cnn(CCO)c5)nc4c3Cl)cc2[nH]1` [Compound 247], the IC50 in test [1] is 20 to 100 nM; in test [2], 20 to 100 nM; in test [3], 20 to 100 nM; in test [4] it was at least 400 nM.
As to `Cc1nc2cc(Oc3ccc4ncc(-c5cnn(CC6(O)CCN(C7COC7)CC6)c5)nc4c3Cl)ccc2[nH]1` [Compound 248], the IC50 in test [1] was in the range of 20 to 100 nM; in test [2] it was 20 to 100 nM; in test [3] it was 20 to 100 nM; in test [4], 100 to 400 nM.
Turning to `Cc1nc2ccc(Oc3ccc4ncc(-c5cnn(C6CCNC(C)(C)C6)c5)nc4c3Cl)cc2[nH]1` (stereo not drawn) [Compound 249], the IC50 is 20 to 100 nM in test [1], 20 to 100 nM in test [2], 20 to 100 nM in test [3] and at least 400 nM in test [4].

For orientation: IC50 means the concentration that gives 50% inhibition. A lower IC50 goes with inhibition by little substance.

Values taken from US20240368181A1, “QUINOXALINE DERIVATIVES AND USES THEREOF” (Black Diamond Therapeutics, Inc., priority 2021, published 2024).
